The test system of one data set is equine IL-31. Briefly: Equine challenge study using the IL-31 itch model after IL-31 mimotope vaccines. The class given is in vivo, Horse. To be noted: for 1st Challenge Score (pruritus score): CRM197 conjugate 25 μg/dose, SP oil + CpG, IL-31 challenge Day 14 post-boost; for 1st Challenge Score (pruritus score) / Percent Change, 1st Challenge vs Historical Score / Percent Change, 2nd Challenge vs Historical Score / 2nd Challenge Score (pruritus score): individual horses; for 1st Challenge Average % Change in pruritus scores / Percent Change, 1st Challenge vs Historical Score: Day 14 post-boost; for 1st Challenge Average % Change in pruritus scores / 2nd Challenge Average % Change in pruritus scores: group mean; for 2nd Challenge Average % Change in pruritus scores / Percent Change, 2nd Challenge vs Historical Score: Day 105 post-boost; for 2nd Challenge Score (pruritus score): IL-31 challenge Day 105 post-boost; for reduction in itch (relative to historic scores): vaccinated horses, after 105 days of the final booster dose. An excerpt: Based on the high antibody titers elicited by horses vaccinated with CRM197 conjugated IL 31 mimotopes (FIG. 4), horses from the serology studies were utilized in a challenge study using the IL-31 itch model developed by the present inventors. Selected horses were vaccinated with an additional boost of the corresponding mimotope vaccines, after conclusion of the serology study, and were challenged with IL-31 at Day 14 after the final boost and at Day 105 after the final boost.
Various candidate IL-31 mimotope constructs were evaluated, including ZTS-7240 (comprising SEQ ID NO:4) mimotope (constrained) corresponding to the 1505 region and ZTS-241 (comprising SEQ ID NO:6) mimotope (linear) corresponding to the A helix of the IL-31 homology model (FIG. 2). Study design is outlined in Table 6 below:
There were no treatment groups T02 and T04 assigned in this study in order to continue to keep the group designations of respective horses from the first serology study. One horse each from treatment groups T02 and T04 from the first serology were used in treatment group T08 as negative controls (No booster dose given; challenged on Day 14 and Day 105 along with other treatment groups).

A further data set has as its system Horse. Briefly: Equine IL-31 induced pruritus model via IL-31 challenge (dose finding). The class given is in vivo. The method, then: Three to eight horses were tested at one time. Dose level depended on the pruritic response from the previous dosing group. The final desired dose was repeated. The final study design was as follows (Table 1):
Observations of normal pruritic behavior (baseline pruritus scores) were made prior to the administration of IL-31 challenge. The horses were scored the same was as post challenge observations except no IL-31 challenge was administered and observation of normal pruritic behavior was made for 30 minutes.
Following baseline pruritus score, horses were administered the IL-31 challenge. IL-31 challenge was administered intravenously to each animal via a jugular vein. The horse ID and time of administration was recorded. Recording of pruritic activity began approximately 15 to 25 minutes after the last of the horses is administered the IL-31 challenge (Table 2 (A to F) below and FIG. 1).
Classical signs of pruritus in horses include: • Biting or scratching at self • Rubbing against objects • Feet stomping • Tail flicking • Head or body shaking • Rolling • Twitching of skin
A “yes” response was indicated by marking a “1” and a “no” response was indicated by marking a “0” during the one minute interval. The cumulative number of yes responses were added to determine a cumulative Pruritus Score for each horse.

Where [1] appears, read: IL-31 0.05 μg/kg IV, average (Table 2E).
Where [2] appears, read: IL-31 0.1 μg/kg IV, average (Table 2D).
Where [3] appears, read: IL-31 0.25 μg/kg IV, average (Table 2C).
[4] abbreviates: IL-31 0.25 μg/kg IV, repeat in second set of horses, average (Table 2F).
The mark [5] stands for this setting: IL-31 0.25 μg/kg IV, repeat in second set of horses, individual horses (Table 2F).
Where [6] appears, read: IL-31 0.5 μg/kg IV, average (Table 2B).

Where “and” joins values, the source holds several entries; their conditions need not be identical. Equal entries are not always repeated.

Turning to “Ac-CGSGGPIYQLQPKEIQAIIVELQNLSKK-NH2 (not fully specified; printed as Ac-CGSGGPIYQLQPKEIQAIIVELQNLSKK-NH2; numbers in words are those of the source; also: CRM197 conjugate) [ZTS-7241, tested as CRM197 conjugate with SP oil + CpG]”, in the data set on equine IL-31 (T03, T05, T06, T07: IM), the “1st Challenge Score (pruritus score)” value was 12 and 5 and 38; the “1st Challenge Average % Change in pruritus scores” value (shortened to “1st Challenge Average % Change”) is on record as −82.18%; the “Percent Change, 1st Challenge vs Historical Score” value (from here on “Percent Change, 1st Challenge”) is −86.44% and −94.87% and −65.23%; the “2nd Challenge Average % Change in pruritus scores” value (“2nd Challenge Average % Change” below) was −68.70%. Besides, in the data set on equine IL-31 (T03, T05, T06, T07: IM), the “Percent Change, 2nd Challenge vs Historical Score” value (“Percent Change, 2nd Challenge” below) was −87.57% and −48.72% and −69.81%; the “2nd Challenge Score (pruritus score)” value is 11 and 50 and 33. Besides, the “reduction in itch (relative to historic scores)” value in the data set with equine IL-31 is 68%.
For “Ac-C[Ahx]C(mT2b)TEVSMPTDNFERKRFILTC(mT2b)-NH2 [ZTS-7240]”, in the data set on equine IL-31 (T03, T05, T06, T07: IM), the “1st Challenge Score (pruritus score)” value was 6 and 21 and 18; the “1st Challenge Average % Change” value was −84.61%; the “Percent Change, 1st Challenge” value was −94.13% and −76.74% and −82.94%; the “2nd Challenge Average % Change” value is −84.27%. In the data set with equine IL-31 (T03, T05, T06, T07: IM), the “Percent Change, 2nd Challenge” value was −92.18% and −83.39% and −77.25%; the “2nd Challenge Score (pruritus score)” value is 8 and 15 and 24. Further, the “reduction in itch (relative to historic scores)” value with equine IL-31 was found to be 80%.
For the molecule “Ac-CGSGNSSAILPYFKAISPSLNNDKSLYIIEQLDKLNF-NH2 (not fully specified; printed as Ac-CGSGNSSAILPYFKAISPSLNNDKSLYIIEQLDKLNF-NH2; numbers in words are those of the source; also: CRM197 conjugate) [ZTS-765, tested as CRM197 conjugate with SP oil + CpG]”, in the data set with equine IL-31 (T01, SC), the “1st Challenge Score (pruritus score)” value is 17 and 11; the “1st Challenge Average % Change” value is given as −82.12%; the “Percent Change, 1st Challenge” value is −74.81% and −89.42%; the “2nd Challenge Average % Change” value is −25.88%. In addition, in the data set on equine IL-31 (T01, SC), the “Percent Change, 2nd Challenge” value is −39.26% and −12.50%; the “2nd Challenge Score (pruritus score)” value was 41 and 91. Also, in the data set with equine IL-31 (T03, T05, T06, T07: IM), the “1st Challenge Score (pruritus score)” value was 4 and 33 and 21; the “1st Challenge Average % Change” value is recorded as −77.62%; the “Percent Change, 1st Challenge” value is −94.54% and −66.33% and −72.00%; the “2nd Challenge Average % Change” value is listed as −45.03%. Moreover, in the data set with equine IL-31 (T03, T05, T06, T07: IM), the “Percent Change, 2nd Challenge” value is −23.60% and −40.82% and −70.67%; the “2nd Challenge Score (pruritus score)” value is 56 and 58 and 22.
For the molecule “Ac-CGSGKEKGVQKFDS-NH2 (not fully specified; printed as Ac-CGSGKEKGVQKFDS-NH2; numbers in words are those of the source; also: CRM197 conjugate) [ZTS-7242, tested as CRM197 conjugate with SP oil + CpG]”, in the data set with equine IL-31 (T03, T05, T06, T07: IM), the “1st Challenge Score (pruritus score)” value was 53 and 45 and 54; the “1st Challenge Average % Change” value is reported as −20.58%; the “Percent Change, 1st Challenge” value was −23.96% and −17.43% and −20.35%; the “2nd Challenge Average % Change” value stood at 46.28%. In addition, in the data set with equine IL-31 (T03, T05, T06, T07: IM), the “Percent Change, 2nd Challenge” value is 22.94% and 69.62%; the “2nd Challenge Score (pruritus score)” value was 67 and 115.

B1: IL-31: recombinant histidine tagged equine IL-31 polypeptide, SEQ ID NO: 10 less signal sequence, used as IV challenge material (protein)
chain: GPIYQLQPKEIQAIIVELQNLSKKLLDDYLNKEKGVQKFDSDLPSCFTSDSQAPGNINSSAILPYFKAISPSLNNDKSLYIIEQLDKLNFQNAPETEVSMPTDNFERKRFILTILRWFSNCLEHRAQHHHHHH
Take B1: the “Post Challenge Pruritus Score/120” value with Horse (IL-31 0.05 μg/kg IV, 120 min observation, individual horses (Table 2E)) was 50 and 36 and 67 and 43 and 25 and 42 and 45 and 37; in the data set with Horse (IL-31 0.1 μg/kg IV, 120 min observation, individual horses (Table 2D)), 62 and 72 and 115 and 74 and 71 and 86 and 96 and 103; in the data set with Horse (IL-31 0.25 μg/kg IV, 120 min observation, individual horses (Table 2C)) it was 95 and 84 and 109 and 81 and 86 and 113 (2×); with Horse (setting [5]), 56 and 20 and 11 and 87 and 68 and 86 and 52 and 81; in the data set with Horse (IL-31 0.5 μg/kg IV, 120 min observation, individual horses (Table 2B)), 120 (2×) and 70 and 117 and 106 and 93 and 110; with Horse (IL-31 1.0 μg/kg IV, 120 min observation, individual horses (Table 2A)), 120 (2×) and 104. The “Post Challenge Pruritus %, Average” value with Horse (setting [1]) was found to be 36%; with Horse (setting [2]) it was 71%; in the data set on Horse (setting [3]) it was 81%; in the data set with Horse (setting [4]), 48%; with Horse (setting [6]), 88%; in the data set on Horse (IL-31 1.0 μg/kg IV, average (Table 2A)) it was 96%. The “Post Challenge Pruritus Score/120, Average” value with Horse (setting [1]) is on record as 43.1; in the data set with Horse (setting [2]), 84.9; in the data set on Horse (setting [3]) it was 97.3; in the data set on Horse (setting [4]), 57.6; in the data set on Horse (setting [6]) it was 105.1; with Horse (IL-31 1.0 μg/kg IV, 120 min observation, average (Table 2A)) it was 114.7. Besides, the “Post Challenge Pruritus %” value with Horse (IL-31 0.05 μg/kg IV, individual horses (Table 2E)) is 42% and 30% and 56% and 36% and 21% and 35% and 38% and 31%; in the data set with Horse (IL-31 0.1 μg/kg IV, individual horses (Table 2D)), 52% and 60% and 96% and 62% and 59% and 72% and 80% and 86%; in the data set with Horse (IL-31 0.25 μg/kg IV, individual horses (Table 2C)), 79% and 70% and 91% and 68% and 72% and 94% (2×); in the data set on Horse (setting [5]), 47% and 17% and 9% and 73% and 57% and 72% and 43% and 68%; in the data set with Horse (IL-31 0.5 μg/kg IV, individual horses (Table 2B)), 100% (2×) and 58% and 98% and 88% and 78% and 92%; in the data set with Horse (IL-31 1.0 μg/kg IV, individual horses (Table 2A)) it was 100% (2×) and 87%. The “Animal health observations after post challenge observation period” value in the data set on Horse (IL-31 1.0 μg/kg IV, first three horses, given diphenhydramine) is “uncomfortable level of pruritus and needed treatment”. The “Animal health observations: adverse events of anaphylaxis” value with Horse (IL-31 0.05-1.0 μg/kg IV, horses) is on record as “No adverse events of anaphylaxis were noted”.

These data come from patent US20220273793A1, “HORSE IL-31 INDUCED PRURITUS MODEL” (priority 2021, published 2022).
